Patent US20240132445A1, “PHENOL DERIVATIVE AND APPLICATION THEREOF IN MEDICAMENTS” (priority 2021, published 2024)
Read-outs that look alike come from different tables or passages of the source.

What was measured:
[1] = in vivo; type: in vivo, rats; details: both sexes, Sprague-Dawley, rat, in vivo, rats
Method: (§2) SD rats, half male and half female, were fasted with water available for 12 h, and were administered via intravenous injection at an administration volume of 10 mL/kg. Then the anesthesia induction time (the time period from drug administration to disappearance of the righting reflex), the anesthesia maintenance time (the time period from disappearance of the righting reflex to recovery of the righting reflex and revival) and the anesthesia recovery time (the time period from revival to complete recovery) were recorded. Indicators including the median effective dose (ED50), median lethal dose (LD50), therapeutic index (TI, i.e. LD50/ED50), anesthesia induction time, anesthesia maintenance time and maximum tolerated dose were used to evaluate the effect and safety of anesthesia.

[2] = system: SD rats; experiment: animal or person; type: in vivo; details: rats
Method: as §2

[3] = target: GABAA (α1β2γ2) receptor (Homo sapiens (Human), UniProt P14867+P18507+P47870); experiment: Whole-cell patch-clamp of GABAA (α1β2γ2) receptor current in stably expressing HEK293 cells; type: cell-based; details: allosteric regulation
GABAA (α1β2γ2) receptor, sequence (P14867 28-456 limits assumed): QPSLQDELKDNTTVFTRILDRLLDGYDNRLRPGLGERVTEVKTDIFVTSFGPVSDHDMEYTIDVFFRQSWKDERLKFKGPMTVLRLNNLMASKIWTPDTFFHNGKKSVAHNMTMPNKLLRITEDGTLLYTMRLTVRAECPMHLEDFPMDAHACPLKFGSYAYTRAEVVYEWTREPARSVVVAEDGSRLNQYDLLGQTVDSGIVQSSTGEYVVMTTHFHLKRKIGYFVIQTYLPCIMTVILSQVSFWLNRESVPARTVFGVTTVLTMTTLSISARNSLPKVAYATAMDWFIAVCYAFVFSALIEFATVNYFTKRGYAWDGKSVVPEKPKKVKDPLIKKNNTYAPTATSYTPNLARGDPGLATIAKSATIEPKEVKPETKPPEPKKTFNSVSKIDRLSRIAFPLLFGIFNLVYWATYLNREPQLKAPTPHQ
GABAA (α1β2γ2) receptor, sequence (P47870 26-512 limits assumed): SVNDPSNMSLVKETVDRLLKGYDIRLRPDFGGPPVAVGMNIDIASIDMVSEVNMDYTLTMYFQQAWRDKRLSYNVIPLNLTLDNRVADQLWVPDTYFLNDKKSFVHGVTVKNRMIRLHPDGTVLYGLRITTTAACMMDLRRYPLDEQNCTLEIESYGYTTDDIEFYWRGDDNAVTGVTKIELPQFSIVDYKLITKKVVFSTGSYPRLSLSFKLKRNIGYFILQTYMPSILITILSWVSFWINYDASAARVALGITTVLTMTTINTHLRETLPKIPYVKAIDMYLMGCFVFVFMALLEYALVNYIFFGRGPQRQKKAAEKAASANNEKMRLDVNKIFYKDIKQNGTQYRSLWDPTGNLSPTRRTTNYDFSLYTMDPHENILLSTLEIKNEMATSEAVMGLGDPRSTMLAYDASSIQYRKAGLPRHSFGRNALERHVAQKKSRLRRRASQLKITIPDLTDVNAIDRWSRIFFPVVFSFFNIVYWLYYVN
GABAA (α1β2γ2) receptor, sequence (P18507 40-475 limits assumed): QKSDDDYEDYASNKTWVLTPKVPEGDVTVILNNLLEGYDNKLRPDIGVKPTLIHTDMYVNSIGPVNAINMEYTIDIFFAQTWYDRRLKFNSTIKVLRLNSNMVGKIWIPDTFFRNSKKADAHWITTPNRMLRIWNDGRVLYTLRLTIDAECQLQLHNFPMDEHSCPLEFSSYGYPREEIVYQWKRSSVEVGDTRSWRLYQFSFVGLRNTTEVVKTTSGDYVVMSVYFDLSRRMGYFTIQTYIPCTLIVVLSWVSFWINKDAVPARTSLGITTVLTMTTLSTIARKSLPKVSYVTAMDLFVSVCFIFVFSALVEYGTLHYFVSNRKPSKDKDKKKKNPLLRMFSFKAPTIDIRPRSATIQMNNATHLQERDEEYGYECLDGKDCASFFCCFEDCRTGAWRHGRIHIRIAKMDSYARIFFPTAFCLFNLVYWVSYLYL
From the text: Gamma-aminobutyric acid (GABA) was an important inhibitory amino acid neurotransmitter in the central nervous system, and functioned by binding to GABA receptors. The GABA receptors were divided into three subtypes: GABAA, GABAB and GABAC, among which the GABAA receptor was the most important. The GABAA receptor was an anion-selective ion channel that could enhance chloride ion permeability and thus reduce neuronal excitability. The GABAA receptor was involved in regulating general anesthesia and was also closely related to diseases such as neurological and psychiatric disorders, e.g., depression, insomnia, anxiety and epilepsy. […]
HEK293 cell lines stably expressing the GABAA (α1β2γ2) receptor were used. […] The voltage stimulus of GABA receptor current recorded by a whole-cell patch-clamp technique was as follows: when whole-cell sealing was formed, the cell membrane voltage was clamped at −70 mV. The peak value of current was recorded after sequentially spraying test compounds from low concentration to high concentration and 100 μM GABA onto the cell surface in a Gap-free mode. […] Then slow capacitance compensation was conducted, and the membrane capacitance (pF) and series resistance were recorded. […] Multiple cells were independently and repeatedly detected. […]

[4] = system: Beagle dogs; experiment: Hemodynamic effect study in conscious Beagle dogs (telemetry); type: in vivo; details: iv
Method: The experiment used an emka PACK 4G telemetry system to detect the effects of intravenous injection of control group 3 and compound 20 on electrocardiogram, blood pressure and body temperature in conscious Beagle dogs, providing reference information for evaluating the safety of clinical use.
Four Beagle dogs were subjected to crossover administration, with a vehicle control (5% DMSO+10% solutol+85% Saline), control group 3 (2 mg/kg), compound 20 (0.5 mg/kg) and compound 20 (1 mg/kg) for each intravenous injection, with an administration volume of 2 mL/kg. Observations were respectively conducted before administration and within 1 h after administration on the day of administration. Anal temperature was measured before administration and at 30 min, 1 h, 2 h and 3 h after administration during each administration period; and electrocardiogram parameters were continuously collected from 0.5 h before administration to 3 h after administration during each administration period. Blood pressure was collected at 15 min after collection was started, and was collected at 2 min, 5 min, 10 min, 20 min, 30 min, 1 h, 2 h and 3 h after administration. The electrocardiogram, blood pressure data, body temperature, and clinical observation results on the day of administration at various time points including before administration (at 30 min after collection was started) and at 2 min, 5 min, 10 min, 20 min, 30 min, 1 h, 2 h and 3 h after administration were analysed and evaluated.

[5] = Pharmacokinetic study in rats; type: in vivo, SD rats; details: male, Sprague-Dawley, rat, plasma, iv, 1 mg/kg
Method: Twelve male SD rats (200-300 g) were randomized into 2 groups (n=6): control group 3 and compound 20. The rats were administered via intravenous injection at 1 mg/kg (control group 3) and 1 mg/kg (compound 20), respectively, with an administration volume of 5 mL/kg and a vehicle of 5% DMSO+10% solutol (HS15)+85% Saline. Blood samples were taken before administration and at 2 min, 4 min, 8 min, 12 min, 15 min, 30 min, 1 h, 1.5 h and 2 h after administration. Plasma samples were taken by centrifugation, and stored in a −80° C. refrigerator until LC-MS analysis to be tested. After sample processing, quantitative analysis of substances in plasma was conducted using LCMS/MS to detect the concentration of prototype compounds in the plasma. The plasma concentration/time curve obtained in this way was used to calculate pharmacokinetic parameters by a validated pharmacokinetic computer program.

[6] = in vivo; details: both, ICR, mouse, in vivo, iv
Method: (§1) SPF-grade ICR mice, each weighing 18-22 g, half male and half female, were used. A well-established mouse anesthesia model was used to study the general anesthesia effect of the compound of the present invention. The compounds were formulated with solvents of 10% DMSO, 15% solutol (HS15) and 75% saline to the desired concentration, for further use. After adapting to the experimental environment, the experimental animals were fasted with water available for 12 h, and were administered via intravenous injection at an administration volume of 10 mL/kg. Then the anesthesia induction time (the time period from drug administration to disappearance of the righting reflex) and the anesthesia maintenance time (the time period from disappearance of the righting reflex to recovery of the righting reflex) were recorded. Indicators including the median effective dose (ED50), median lethal dose (LD50), therapeutic index (TI, i.e. LD50/ED50), anesthesia induction time, anesthesia maintenance time and maximum tolerated dose were used to evaluate the effect and safety of anesthesia.

[7] = system: ICR mice; experiment: animal or person
Method: as §1

[8] = Pharmacokinetic study in Beagle dogs; type: in vivo; details: male, dog, plasma, iv, 0.5 mg/kg
Method: Six male Beagle dogs (6-10 kg) were randomized into 2 groups (n=3): control group 3 and compound 20. The […] were administered via intravenous injection at 0.5 mg/kg (control group 3) and 0.5 mg/kg (compound 20), respectively, with an administration volume of 1 mL/kg and a vehicle of 5% DMSO+10% solutol (HS15)+85% Saline. Blood samples were taken before administration and at 2 min, 5 min, 10 min, 20 min, 30 min, 1 h, 1.5 h, 2 h and 3 h after administration. Plasma samples were taken by centrifugation, and stored in a −80° C. refrigerator until LC-MS analysis to be tested. After sample processing, quantitative analysis of substances in plasma was conducted using LCMS/MS to detect the concentration of prototype compounds in the plasma. The plasma concentration/time curve obtained in this way was used to calculate pharmacokinetic parameters by a validated pharmacokinetic computer program.

Molecule `CCS(=O)(=O)[C@@H](C)c1cccc([C@H](C)C2CC2)c1O` [Compound 20, 2-((R)-1-cyclopropylethyl)-6-((S)-1-(ethylsulfonyl)ethyl)phenol] has an LD50 ([1]; intravenous injection, read-out: LD50) of 3.2 mg/kg, an MTD ([1]; iv, maximum tolerated dose, read-out: MTD) of 2.2 mg/kg and an ED50 ([2]; Rattus norvegicus, intravenous injection, loss of righting reflex, read-out: ED50) of 0.5 mg/kg. For the same molecule, the TI ([2]; LD50/ED50) was 6.4, the Anesthesia induction time ([2]; iv, administration to disappearance of righting reflex) was 10 s and the Anesthesia maintenance time ([2]; iv, disappearance to recovery of righting reflex) was 624 s. The EC50 ([3]; HEK293, -70 mV, n=3, read-out: EC50) was 1560 nM, the EC50 ([3]; HEK293, text restatement, read-out: semi-activated concentration (EC50)) was 1560 nM and the “effect on the heart rate, blood pressure and body temperature” value ([4]; 0.5 and 1 mg/kg) was “little effect”. For the same molecule, the “change in heart rate after administration” value ([4]; control group 3 2 mg/kg, compound 20 0.5 and 1 mg/kg, within 1 h, recovery after 1 h) was “slow down in heart rate”, the AUC(0-t) [5] was 196 ng·h/mL and the half-life [5] was 19.8 min. The LD50 [6] was 3.5 mg/kg, the MTD [6] was 1.8 mg/kg and the ED50 ([7]; Mus musculus, iv) was 0.6 mg/kg. It also gave a TI ([7]; mice, LD50/ED50) of 5.8, an Anesthesia induction time ([7]; mice, iv, administration to disappearance of righting reflex) of 2 s and an Anesthesia maintenance time ([7]; mice, iv, disappearance to recovery of righting reflex) of 573 s. For the same molecule, the AUC(0-t) [8] was 128 ng·h/mL and the half-life [8] was 47.4 min.
